This note sets out measurements from US20150119394A1, “Insulin-Like Growth Factor-1 Receptor Inhibitors” (Merck Sharp & Dohme Corp., priority 2012, published 2015).

Data set [1] deals with A673 (Ewing's Sarcoma) cancer cell line. The experiment in a line: Anti-proliferative assay (MTS / CCK-8). The data set is classed as cell-based. As for the experimental part: Anti-proliferative potential of compounds was tested using various cell lines (details provided in Table 2) by MTS (Promega, Cat # G1111), a tetrazolium compound ((3-(4,5-dimethylthiazol-2-yl)-5-(3-carboxymethoxyphenyl)-2-(4-sulphophenyl)-2Htetrazolium, inner salt; MTS) and Cell Counting kit-8 (CCK-8 a Dojindo's highly watersoluble tetrazolium salt of WST-8 [2-(2-methoxy-4-nitrophenyl)-3-(4-nitrophenyl)-5-(2,4-disulfophenyl)-2H-tetrazolium, monosodium salt]). MTS is a colorimetric assay for determining the number of viable cells in proliferation, cytotoxicity or chemosensitivity assays. This is used with an electron coupling reagent PMS (Phenazine methosulfate). MTS is bioreduced by cells into a formazan that is soluble in tissue culture medium. The absorbance of the formazan at 490 nm can be measured directly from 96 well assay plates without additional processing. Dehydrogenase enzymes found in metabolically active cells accomplish the conversion of MTS into the aqueous soluble formazan. The quantity of formazan product is directly proportional to the number of living cells in culture. In CCK-8, WST-8 is reduced by dehydrogenases in cells to give a yellow colored product formazan, which is measured at 450 nm.
For experimental purposes, cells were seeded at a density of 3000-5000 cells per well in 180 μL/well volume in transparent 96 well tissue culture plate (NUNC, USA) and incubated overnight at 37° C., 5% CO2. Next day before adding compound the medium was replaced and 180 μL, of fresh medium added with the 100 ng/mL IGF without FCS followed by addition of 20 μL of 10× compound (10 mM stock made in DMSO and then further dilutions were made in medium, final DMSO concentration should not exceed 0.5%) and incubated for 72 hours in humidified 5% CO2 incubator at 37±1° C. After incubation medium was replaced with 200 μL of medium containing 20 μL MTS reagent per well. Plates were incubated for 3-4 hours and absorbance was measured at 490 nm on Spectrophotometer (SpectraMax, Molecular Devices). Percentage cytotoxicity and IC50 was calculated using SoftMax software. CCK-8 was used for suspension cell lines. Cell seeding and compound addition was done on same day. Following the incubation, 10 μL of CCK-8 solution was added in each well. After 4 hour incubation, the absorbance was determined at 450 nm using Spectrophotometer (SpectraMax, Molecular Devices). In every experiment, each condition was run in triplicate wells.

For data set [2], the target named is T1, intracellular kinase domain of human IGF-1R (GST fusion protein) (Homo sapiens, UniProt P08069).
T1 construct: IGFRK and IRK enzyme used for the assay was intracellular kinase domain of human IGF-1R; GST; made in house
The experiment in a line: In vitro IGF-1R kinase assay (HTRF). Type of data set: biochemical. To be noted: ATP 20 μM, IGFRK 0.25 nM. For orientation: Time-resolved FRET reads energy transfer from a long-lived donor to a nearby acceptor.

A short description of data set [3]: Oral absorption in Swiss mice. Type of data set: in vivo. To be noted: 10 mg/kg p.o.; for Cmax / half-life / AUC(0-inf): male, mouse, plasma, po; for AUC(0-inf): read-out: AUC0-infinity. As for the experimental part: Oral absorption of different compounds was ascertained in Swiss mice. The procedure followed was as detailed below:
Species: Swiss mice, overnight fasted state
Sex and weight: Male, in the weight range of 25-30 g
Number of animals: 18 animals divided into six groups (n=3) and bled as follows:
Formulation: Compound suspended in 0.5% carboxymethylcellulose or 0.25% methylcellulose
Blood (250 μL) is collected from the retro-orbital sinus at designated time points from each mouse using heparinized bleeding capillaries into micro-centrifuge tubes containing 5 μL EDTA (200 mM) as anticoagulant. Plasma is separated by centrifugation at 10000 rpm for 5 min and samples stored at −70° C. until bioanalysis.
On the day of analysis, plasma samples are thawed at room temperature. An aliquot (100 μL) of each plasma sample is spiked individually with 10 μL of internal standard. The samples are then vortexed for 10 seconds followed by addition of 1 mL of extraction solvent and vortexed for 5 minutes. The samples are then centrifuged at 10000 rpm for 5 minutes at 4° C. Supernatants (800 μL) are removed and transferred to glass tubes and evaporated to dryness under nitrogen. The dried residues are reconstituted using 100 μL of 90:10% v/v acetonitrile:MilliQ water. The reconstituted samples are vortexed, centrifuged and injected into LC-MS/MS for analysis. The calibration curve is prepared in the range of 0.5 to 5000 ng/mL in mouse plasma for quantitation.

T1 sequence (P08069 999-1274 limits assumed): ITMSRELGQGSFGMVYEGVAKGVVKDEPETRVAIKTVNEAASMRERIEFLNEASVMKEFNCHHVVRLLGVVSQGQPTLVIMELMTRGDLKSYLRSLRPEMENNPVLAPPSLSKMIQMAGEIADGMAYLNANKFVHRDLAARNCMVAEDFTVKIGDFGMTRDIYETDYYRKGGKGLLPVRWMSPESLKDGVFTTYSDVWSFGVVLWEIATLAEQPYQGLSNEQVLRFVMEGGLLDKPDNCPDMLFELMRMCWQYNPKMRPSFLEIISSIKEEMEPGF

Turning to `COc1ccc(-c2cccc(OC[C@@H]3CN(S(=O)(=O)c4c(C(N)=O)[nH]c5ccc(Cl)cc45)CCO3)c2)cn1` [Compound 7, (S)-5-chloro-3-((2-((3-(6-methoxypyridin-3-yl)phenoxy)methyl)morpholino)sulfonyl)-1H-indole-2-carboxamide], the “anti-proliferative activity as compared to compound 999” value in data set [1] (Ewing's Sarcoma cell line) is “higher”. In addition, in data set [1] (Homo sapiens, A673 (Ewing's Sarcoma), 72 hours, 100 ng/mL IGF, read-out: Anti-proliferation IC50), the IC50 stood at 0.6 nM. In data set [2], this molecule came in with an IC50 of 15.1 nM. In addition, in data set [3], the “AUC as compared to compound 999” value is listed as “higher”; the “Cmax as compared to compound 999” value is listed as “higher”; the concentration peaked (Cmax) at 2200 nM; the half-life – broadly, how long it takes for the measured level to halve – was 0.9 h. Besides, the AUC(0-inf) in data set [3] was 1940 ng·h/mL.

For the molecule `NC(=O)c1[nH]c2ccc(Cl)cc2c1S(=O)(=O)N1CCO[C@H](COc2ccc(-c3ccncc3)cc2)C1` [Compound 32, (S)-5-chloro-3-((2-((4-(pyridin-4-yl)phenoxy)methyl)morpholino)sulfonyl)-1H-indole-2-carboxamide], in data set [2], the IC50 turned out to be 3.5 nM. For the same molecule, in data set [3], the “AUC as compared to compound 999” value is on record as “higher”, the “Cmax as compared to compound 999” value was “higher”, the concentration peaked (Cmax) at 2780 nM and the half-life was 2.8 h. Besides, the AUC(0-inf) in data set [3] was 3190 ng·h/mL.

Consider `NC(=O)c1[nH]c2ccc(Cl)cc2c1S(=O)(=O)N1CCO[C@H](COc2cccc(-c3cccnc3F)c2)C1` [Compound 3, (S)-5-chloro-3-((2-((3-(2-fluoropyridin-3-yl)phenoxy)methyl)morpholino)sulfonyl)-1H-indole-2-carboxamide], for which the IC50 in data set [2] was determined as 31.2 nM. Besides, in data set [3], the “AUC as compared to compound 999” value is listed as “higher”, the “Cmax as compared to compound 999” value is recorded as “higher”, the peak level (Cmax) was 2980 nM and the half-life was 4.6 h. In addition, in data set [3], the AUC(0-inf) amounted to 1960 ng·h/mL.

`NC(=O)c1[nH]c2ccc(Cl)cc2c1S(=O)(=O)N1CCO[C@H](COc2ccc(-c3ccnc(Cl)c3)cc2)C1` [Compound 84, (S)-5-chloro-3-((2-((4-(2-chloropyridin-4-yl)phenoxy)methyl)morpholino)sulfonyl)-1H-indole-2-carboxamide]: the IC50 in data set [2] is 18.5 nM. In addition, in data set [3], the “AUC as compared to compound 999” value is “higher”, the “Cmax as compared to compound 999” value is “higher”, the Cmax (commonly the maximum level reached in the sampled fluid or tissue) amounted to 1240 nM and the half-life is 1.3 h. The AUC(0-inf) in data set [3] came out at 2200 ng·h/mL.

On to `NC(=O)c1[nH]c2ccc(Cl)cc2c1S(=O)(=O)N1CCO[C@H](COc2cncc(-c3ccccc3)c2)C1` [Compound 76, (S)-5-chloro-3-((2-(((5-phenylpyridin-3-yl)oxy)methyl)morpholino)sulfonyl)-1H-indole-2-carboxamide], for which, in data set [2], the IC50 was more than 1000 nM.

For the molecule `Cc1ccccc1-c1cccc(OC[C@@H]2CN(S(=O)(=O)c3c(C(N)=O)[nH]c4ccc(Cl)cc34)CCO2)c1` [Compound 10, (S)-5-chloro-3-((2-(((2′-methyl-[1,1′-biphenyl]-3-yl)oxy)methyl)morpholino)sulfonyl)-1H-indole-2-carboxamide], the IC50 in data set [2] stood at 199 nM.

With `Cc1cc(OC[C@@H]2CN(S(=O)(=O)c3c(C(N)=O)[nH]c4ccc(Cl)cc34)CCO2)ccc1-c1cccnc1` [Compound 66, (S)-5-chloro-3-((2-((3-methyl-4-(pyridin-3-yl)phenoxy)methyl)morpholino)sulfonyl)-1H-indole-2-carboxamide], the IC50 in data set [2] worked out at 18.7 nM.

On to `NC(=O)c1[nH]c2ccc(Cl)cc2c1S(=O)(=O)N1CCO[C@H](COc2ccc(-c3ccnc(F)c3)cc2)C1` [Compound 45, (S)-5-chloro-3-((2-((4-(2-fluoropyridin-4-yl)phenoxy)methyl)morpholino)sulfonyl)-1H-indole-2-carboxamide], for which the IC50 in data set [2] turned out to be 12.1 nM.

`NC(=O)c1[nH]c2ccc(Cl)cc2c1S(=O)(=O)N1CCO[C@H](COc2cc3ccccc3nn2)C1` [Compound 89, (S)-5-chloro-3-((2-((cinnolin-3-yloxy)methyl)morpholino)sulfonyl)-1H-indole-2-carboxamide] yielded an IC50 in data set [2] of 136 nM.

In data set [2], `NC(=O)c1[nH]c2ccc(Cl)cc2c1S(=O)(=O)N1CCO[C@H](COc2ccc(-c3ccccc3Cl)cc2)C1` [Compound 83, (S)-5-chloro-3-((2-(((2′-chloro-[1,1′-biphenyl]-4-yl)oxy)methyl)morpholino)sulfonyl)-1H-indole-2-carboxamide] yielded an IC50 of 97 nM.

Molecule `NC(=O)c1[nH]c2ccc(Cl)cc2c1S(=O)(=O)N1CCO[C@H](COc2ccc(-c3cncnc3)cc2)C1` [Compound 48, (S)-5-chloro-3-((2-((4-(pyrimidin-5-yl)phenoxy)methyl)morpholino)sulfonyl)-1H-indole-2-carboxamide] came in with an IC50 in data set [2] of 4 nM.

Take `COc1cc(-c2ccc(OC[C@@H]3CN(S(=O)(=O)c4c(C(N)=O)[nH]c5ccc(Cl)cc45)CCO3)cc2)ccn1` [Compound 47, (S)-5-chloro-3-((2-((4-(2-methoxypyridin-4-yl)phenoxy)methyl)morpholino)sulfonyl)-1H-indole-2-carboxamide]: in data set [2], the IC50 was less than 100 nM.

Consider `NC(=O)c1[nH]c2ccc(Cl)cc2c1S(=O)(=O)N1CCO[C@H](COc2ccccc2-c2cccc(F)c2)C1` [Compound 64, (S)-5-chloro-3-((2-(((3′-fluoro-[1,1′-biphenyl]-2-yl)oxy)methyl)morpholino)sulfonyl)-1H-indole-2-carboxamide], for which the IC50 in data set [2] was more than 1000 nM.

In data set [2], `NC(=O)c1[nH]c2ccc(Cl)cc2c1S(=O)(=O)N1CCO[C@H](COc2ccccc2-c2cccnc2F)C1` [Compound 57, (S)-5-chloro-3-((2-((2-(2-fluoropyridin-3-yl)phenoxy)methyl)morpholino)sulfonyl)-1H-indole-2-carboxamide] came in with an IC50 of more than 1000 nM.

`NC(=O)c1[nH]c2ccc(Cl)cc2c1S(=O)(=O)N1CCO[C@H](COc2ccccc2-c2ccncc2)C1` [Compound 56, (S)-5-chloro-3-((2-((2-(pyridin-4-yl)phenoxy)methyl)morpholino)sulfonyl)-1H-indole-2-carboxamide]: in data set [2], the IC50 is more than 1000 nM.

The molecule `Cn1nc(-c2ccccc2)cc1OC[C@@H]1CN(S(=O)(=O)c2c(C(N)=O)[nH]c3ccc(Cl)cc23)CCO1` [Compound 92, (S)-5-chloro-3-((2-(((1-methyl-3-phenyl-1H-pyrazol-5-yl)oxy)methyl)morpholino)sulfonyl)-1H-indole-2-carboxamide] gave an IC50 in data set [2] of more than 100 nM.

With `NC(=O)c1[nH]c2ccc(Cl)cc2c1S(=O)(=O)N1CCO[C@H](COc2cccc(-c3ccc(F)cc3)c2)C1` [Compound 11, (S)-5-chloro-3-((2-(((4′-fluoro-[1,1′-biphenyl]-3-yl)oxy)methyl)morpholino)sulfonyl)-1H-indole-2-carboxamide], in data set [2], the IC50 stood at 15.4 nM.

As to `Cc1cc(OC[C@@H]2CN(S(=O)(=O)c3c(C(N)=O)[nH]c4ccc(Cl)cc34)CCO2)ccc1-c1ccncc1` [Compound 67, (S)-5-chloro-3-((2-((3-methyl-4-(pyridin-4-yl)phenoxy)methyl)morpholino)sulfonyl)-1H-indole-2-carboxamide], the IC50 in data set [2] came to 4.3 nM.
